Key:
[1] = system: SZ95 (immortalized human sebaceous gland cells) cells; experiment: Sentinel lipid assay (desaturation index in SZ95 sebocytes); format: cell-based
Protocol: SZ95 (immortalized human sebaceous gland cells) cells were seeded in Greiner bio-one 96-well polypropylene plates that were pre-treated with 50 μg/ml Human Plasma Fibronectin (Thermo Fisher Scientific) at a density of 10^4 cells/135 μl. Cells were incubated in a humidified incubator with 5% CO2 at 37° C. overnight. Test compounds were diluted at a ratio of 1:3 and added to cells at final concentrations starting from 10 μM. Compound H was used as a positive control reference compound in each plate. Cells in the assay plate were incubated in a humidified incubator with 5% CO2 at 37° C. for 72h.
Culture medium was removed from the cells and cells in culture plates were washed with ice cold phosphate buffered saline three times. Plates were heat sealed and stored in a −80° C. freezer prior to Sentinel lipid assay.
Sentinel lipid assay: The sentinel lipid assay was used quantify the change in the global desaturation index in SZ95 sebocytes upon administration of LXR agonist compounds. The assay measures a smaller subset of lipid analytes in […] (termed “sentinel lipids”) which would model the global changes the population of both saturated and desaturated lipids in the cells. In order to define this smaller subset of lipids, a complete lipid profile was recorded on dose response curves (eight levels from 4 nM to 10 uM) of Compounds A-N. An elastic net regression model was applied separately to both the saturated and desaturated lipids to determine the minimum combination of coefficients and analytes which could be used to adequately model the total population of lipids. The elastic net model was able to reduce the behavior of 425 lipids to 11 lipids and the correlation between the desaturation indices observed using the complete set of lipids with from the 11 sentinel lipids was 0.96.
A medium throughput assay was created using this reduced set of sentinel lipids. A single batch is defined as triplicate examples of three unique plates (i.e., a single batch of cells is used to create nine plates for LC-MSMS analysis). Lipids were extracted from the cells using a 1:1 mixture of methylene chloride/methanol containing 10 nM of deuterated standards of triglycerides, which are used as internal standards for quantitating the lipid abundance. The lipids were separated prior to mass spectrometric analysis using a five minute HPLC gradient. The abundance of the sentinel lipids and the internal standards are measured using multiple reaction monitor mode (MRM) on a triple quadrupole mass spectrometer. The data was transformed from total ion current to nmoles/10^6 cells, which are multiplied by the coefficients from the elastic net model to determine the effective desaturated and saturated content, and therein the desaturation index of the dosed cells. In order to compare compounds from multiple batches with one another, the measure raw desaturation index was normalized by dividing it by the desaturation index of the DMSO dosed cells, and all data was assessed as the fraction by which the compound increases the desaturation index above 1. The Amax value refers to the percent […] of the tested compound compared to the reference compound.

[2] = Eyelid pharmacokinetics: compound concentration in rabbit meibomian gland; format: in vivo
Protocol: A formulation of 1% Compound G as a suspension in a suitable vehicle was administered to rabbits as follows. Animals were sedated and the eyelashes and hair on both eyes on both lids trimmed as short as possible. Thirty microliters of the 1% Compound G was drawn up into a pipette and carefully pipetted around the entire eyelid of the animal a few millimeters back from the edge of the lid so as to prevent the material from leaking onto the eye itself. Following application, a cotton swab or eye spear was used to gently try and massage the material into the skin. At the appropriate time points, the animals were euthanized and meibomian glands removed and the concentration of the compound in meibomian glands was measured. The experiment was conducted in triplicate and the results below illustrate mean concentration in nM.

[3] = system: SCD1 protein production in SZ95-SCD1-HiBit cells; experiment: Measurement of SCD1 expression in SZ95-SCD1-HiBit cells (HiBiT assay); format: cell-based; conditions: Homo sapiens
Protocol: SZ95-SCD1-HiBit cells were seeded in 384-well cell culture white plates at a density of 3000 cells/30 ul. Water is added to edge wells to avoid evaporation. Cells were incubated in a humidified incubator with 5% CO2 at 37° C. overnight. Tested compounds were diluted at a ratio of 1:3 using Agilent BRAVO Automated Liquid Handling Platform and added to cells at final concentrations starting from 18 μM. Compound H was used as a reference compound in each plate. Cells in the assay plate were incubated in a humidified incubator with 5% CO2 at 37° C. for 48h.
The assay plates were removed from the incubator and allowed to equilibrate to room temperature. Nano-Glo® HiBiT Detection Reagent (Promega; a mixture of Nano-Glo HiBiT Detection Buffer, Nano-Glo HiBiT Detection Substrate, and LgBiT protein) was added into assay plates, at a volume equal to cell culture medium in each well. Plates were placed on an orbital shaker at a speed of 300-600 rpm for 10 min at room temperature, and read on an EnVision Plate Reader using luminescence detection with a 1 second read time.
The assay measures the increase in SCD1 protein production in vitro. Amax refers to the percent […] of the tested compound compared to the reference compound.

Uptake into the meibomian gland ([2]; 1% suspension on eyelid, in words): sustained for at least six hours | concentration at 0.5 h ([2]; meibomian gland, topical, 0.5 h, 30 microliters of 1% suspension applied to eyelid, triplicate): 2630 nM | concentration at 3 h ([2]; meibomian gland, topical, 3 h, 30 microliters of 1% suspension applied to eyelid, triplicate): 3780 nM | concentration at 6 h ([2]; meibomian gland, topical, 6 h, 30 microliters of 1% suspension applied to eyelid, triplicate): 1050 nM | EC50 ([3]; SZ95-SCD1-HiBit cells, 48h incubation, top concentration 18 μM): 111 nM
Compound: CCOC(=O)Cn1nc(C(F)(F)F)cc1-c1ccc(-c2cccc(S(C)(=O)=O)c2)cc1 [Compound G, ethyl 2-(5-(3′-(methylsulfonyl)-[1,1′-biphenyl]-4-yl)-3-(trifluoromethyl)-1H-pyrazol-1-yl)acetate]
EC50 ([1]; SZ95 cells, 72h incubation, top concentration 10 μM, desaturation index, read-out: SLA EC50): 243 nM | Emax ([1]; percent compared to the reference compound (Compound H), 72h, read-out: SLA Amax): 98.8% | Emax ([3]; percent compared to the reference compound (Compound H), 48h, read-out: HiBit Amax): 70.7%
